Results reported in patent EP4567037A1, “USE OF PYRROLOPYRIMIDINE COMPOUND IN TREATMENT OF ACUTE GRAFT VERSUS HOST DISEASE” (Chia Tai Tianqing Pharmaceutical Group Co., Ltd., priority 2022, dated 2024).

System: glucocorticoid-resistant acute graft-versus-host disease
Test: Clinical study of tablets of the compound of formula II in subjects with glucocorticoid-resistant acute graft-versus-host disease
Format: in vivo
Procedure: This study was conducted to evaluate the safety and preliminary efficacy of the compound of formula II for treating acute graft-versus-host disease in a subject resistant to glucocorticoid.
Administration method: orally administered twice a day at fasting, at a dose of 10 mg or 15 mg each time, with 28 consecutive days of administration as one treatment cycle.
Drug: the compound of formula I in 5 mg or 20 mg tablets, with the compound of formula I being shown as its stereoisomer, a compound of formula II: [drawing 4]
• 1) Aged 12-75 years (inclusive), with no gender restriction; • 2) Previously received allogeneic hematopoietic stem cell transplantation (including non-myeloablative, myeloablative, and reduced-intensity conditioning transplantation of bone marrow, peripheral blood stem cells, and umbilical cord blood); • 3) Clinically diagnosed with aGVHD of grade II to grade IV according to MAGIC guidelines; • Resistance to glucocorticoid therapy *, defined as resistance to high-dose systemic glucocorticoid (methylprednisolone at a dose of 1-2 mg/kg/day or prednisone at an equivalent dose of 1.25-2.5 mg/kg/day), taken alone or taken in combination with a calcineurin inhibitor (CNI); • * Subjects meeting any one of the following conditions can be defined as resistant to conventional glucocorticoid therapy, i.e., therapy with methylprednisolone at a dose of ≥ 1 mg/kg/day or therapy with another type of glucocorticoid at an equivalent dose: (1) progression of aGVHD after the glucocorticoid therapy has been administered for 3 days, (2) no amelioration in aGVHD after the glucocorticoid therapy has been administered for 5 days, and (3) incomplete response of aGVHD after the glucocorticoid therapy has been administered for 14 days; • 4) Within 48 h before the start of therapy, neutrophil count (ANC) > 1 × 10^9/L, and platelet count (PLT) ≥ 20×10^9/L; and • 5) Subjects with voluntary participation, signed informed consent, and good compliance.
During the study, the investigator scored aGVHD treatment responses according to Harris 2016 response evaluation criteria.
The evaluation index may be selected from the group consisting of: • Objective response rate (ORR): refers to the percentage of subjects in complete response (CR) or very good partial response (VGPR) or partial response (PR). • Complete response (CR) rate: refers to the percentage of subjects in complete response (CR). • Overall survival (OS): refers to the time from the start of the first administration to death due to any cause. • Duration of response (DOR): for subjects in complete response (CR) or very good partial response (VGPR) or partial response (PR) on day 28, DOR is defined as the time from the date of the first recorded response to the date of the first recorded disease progression or the start of any new systemic therapy for aGVHD. • Event-free survival (EFS): defined as the time from the date of the first administration to the date of relapse/progression of hematologic disease, transplantation failure, or death due to any cause. • Non-relapse mortality (NRM): defined as the time from the date of the first administration to the date of death not related to relapse/progression of hematologic disease. • Incidence of malignancy relapse/progression (MR): defined as the time from the date of the first administration to the date of relapse/progression of hematologic disease.
Twelve evaluable subjects orally took tablets of the compound of formula II twice a day at fasting, at a dose of 10 mg each time, with 28 days as one administration cycle. The ORR of the 12 subjects on D28 was 83.3% (10/12), with 8 achieving CR and 2 achieving VGPR (very good partial response). […] Evaluation of efficacy in patients

[1] = D28, of 12 evaluable subjects, 10 mg twice a day

N#CC[C@H](C1CCCC1)n1cc(-c2ncnc3[nH]ccc23)c(N)n1 [compound of formula II]
Tolerability and safety (10 mg twice a day, oral tablets, overall adverse events being controllable): good tolerability and safety | ORR on D28 (12 evaluable subjects, oral, twice a day at fasting, 10 mg each time, 28-day cycle, Harris 2016 response criteria): 83.3% | ORR on D28 (responders/evaluable subjects) (12 evaluable subjects, oral, twice a day, 10 mg each time, 28-day cycle): 10/12 | Number of subjects achieving CR [1]: 8 | Number of subjects achieving VGPR (very good partial response) [1]: 2 | Number of patients achieving ORR on D28 (subgroup aGVHD Grade II (6 patients)): 6 | Number of patients achieving ORR on D28 (subgroup aGVHD Grade III (6 patients)): 4 | Number of patients achieving ORR on D28 (subgroup organ affected by aGVHD: Liver (5 patients)): 3 | Number of patients achieving ORR on D28 (subgroup organ affected by aGVHD: Lower digestive tract (5 patients)): 4 | Number of patients achieving ORR on D28 (subgroup organ affected by aGVHD: Skin (8 patients)): 8 | Number of patients achieving ORR on D28 (subgroup organ affected by aGVHD: Upper digestive tract (2 patients)): 2 | Number of patients achieving ORR on D28 (subgroup previous therapy Hormone + CD25 monoclonal antibody (1 patient)): 0 | Number of patients achieving ORR on D28 (subgroup previous therapy Hormone + CNI + MMF (6 patients)): 5 | Number of patients achieving ORR on D28 (subgroup previous therapy Hormone + MTX + CNI + MMF (1 patient)): 1 | Number of patients achieving ORR on D28 (subgroup previous therapy Hormone ± CNI (4 patients)): 4
